Measured values reported in patent US20260207585A1, “METHODS AND COMPOSITIONS FOR THE TREATMENT OF PARKINSON'S DISEASE, HUNTINGTON'S DISEASE, AMYOTROPHIC LATERAL SCLEROSIS, AND LEARNING DISORDERS” (Cedars-Sinai Medical Center, priority 2022, published 2026).

What was measured:
Type in all cases: biochemical
[1] = biological target: ASH1L (Homo sapiens, UniProt Q9NR48); assay: Methyltransferase inhibition panel: ASH1L; details: control compound; substrate Nucleosomes 0.05 mg/mL
Experimental: (§1) The ability of ETP69 to inhibit methyltransferases was tested.

[2] = biological target: T1, NSD3 (Homo sapiens, UniProt Q9BZ95); assay: Methyltransferase inhibition panel: NSD3; details: control compound; substrate Nucleosomes 0.05 mg/mL
T1 sequence (Q9BZ95 1-1437): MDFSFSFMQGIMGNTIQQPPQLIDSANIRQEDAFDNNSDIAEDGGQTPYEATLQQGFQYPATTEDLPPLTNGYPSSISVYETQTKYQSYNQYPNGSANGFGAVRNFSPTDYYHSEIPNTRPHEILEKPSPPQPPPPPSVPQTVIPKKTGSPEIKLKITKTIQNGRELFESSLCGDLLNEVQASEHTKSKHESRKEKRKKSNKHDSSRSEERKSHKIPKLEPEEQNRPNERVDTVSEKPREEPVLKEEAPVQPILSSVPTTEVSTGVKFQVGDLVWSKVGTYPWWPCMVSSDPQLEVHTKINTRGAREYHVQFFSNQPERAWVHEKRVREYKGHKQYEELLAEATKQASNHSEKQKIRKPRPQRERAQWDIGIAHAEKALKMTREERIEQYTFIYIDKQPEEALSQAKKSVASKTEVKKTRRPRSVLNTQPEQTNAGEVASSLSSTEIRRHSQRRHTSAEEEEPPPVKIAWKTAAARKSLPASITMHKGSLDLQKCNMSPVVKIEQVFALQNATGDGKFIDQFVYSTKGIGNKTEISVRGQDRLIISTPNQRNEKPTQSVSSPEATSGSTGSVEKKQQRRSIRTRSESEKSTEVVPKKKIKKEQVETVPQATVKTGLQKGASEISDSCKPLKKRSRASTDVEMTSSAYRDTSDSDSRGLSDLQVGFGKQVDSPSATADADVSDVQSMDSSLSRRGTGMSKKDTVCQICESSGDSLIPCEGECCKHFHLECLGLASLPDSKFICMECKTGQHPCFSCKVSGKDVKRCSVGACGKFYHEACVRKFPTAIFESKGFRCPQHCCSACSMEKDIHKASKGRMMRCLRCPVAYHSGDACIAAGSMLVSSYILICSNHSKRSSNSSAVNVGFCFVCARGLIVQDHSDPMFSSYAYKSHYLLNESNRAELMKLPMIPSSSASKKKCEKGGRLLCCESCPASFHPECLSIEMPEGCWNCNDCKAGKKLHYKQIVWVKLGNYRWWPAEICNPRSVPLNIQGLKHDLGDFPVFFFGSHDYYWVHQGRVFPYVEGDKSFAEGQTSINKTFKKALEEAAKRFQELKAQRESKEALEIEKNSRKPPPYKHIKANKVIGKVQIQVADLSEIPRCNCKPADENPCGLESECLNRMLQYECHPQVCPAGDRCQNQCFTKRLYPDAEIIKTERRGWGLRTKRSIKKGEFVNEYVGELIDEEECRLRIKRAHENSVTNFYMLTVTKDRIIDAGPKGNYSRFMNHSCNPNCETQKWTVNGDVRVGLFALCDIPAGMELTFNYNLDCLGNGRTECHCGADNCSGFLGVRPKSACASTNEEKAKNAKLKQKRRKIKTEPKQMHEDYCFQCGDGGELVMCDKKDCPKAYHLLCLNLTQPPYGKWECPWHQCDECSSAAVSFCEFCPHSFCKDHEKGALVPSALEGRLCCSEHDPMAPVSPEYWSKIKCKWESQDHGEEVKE
Experimental: as §1

[3] = biological target: T2, SET8 (Homo sapiens, UniProt Q9NQR1); assay: Methyltransferase inhibition panel: SET8; details: control compound; substrate Nucleosomes 0.05 mg/mL
T2 sequence (Q9NQR1 1-393): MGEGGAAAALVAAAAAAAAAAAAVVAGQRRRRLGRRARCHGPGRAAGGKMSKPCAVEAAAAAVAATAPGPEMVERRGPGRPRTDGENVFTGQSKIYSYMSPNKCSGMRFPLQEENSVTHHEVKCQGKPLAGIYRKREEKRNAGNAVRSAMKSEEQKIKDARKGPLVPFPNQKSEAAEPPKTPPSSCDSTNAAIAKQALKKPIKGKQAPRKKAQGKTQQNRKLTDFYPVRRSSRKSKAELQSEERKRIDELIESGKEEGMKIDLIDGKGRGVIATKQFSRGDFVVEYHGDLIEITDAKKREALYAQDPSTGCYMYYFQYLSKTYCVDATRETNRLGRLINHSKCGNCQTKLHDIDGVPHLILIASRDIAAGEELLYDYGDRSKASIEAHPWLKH
Experimental: as §1

[4] = biological target: DNMT3b/3L (Homo sapiens, UniProt Q9UBC3); assay: Methyltransferase inhibition panel: DNMT3b/3L; details: read-out: Control IC50*
Experimental: as §1

[5] = biological target: MLL1 Complex (Homo sapiens, UniProt Q03164); assay: Methyltransferase inhibition panel: MLL1 Complex; details: control compound; substrate Nucleosomes 0.05 mg/mL
Experimental: as §1

[6] = biological target: SETD2 (Homo sapiens, UniProt Q9BYW2); assay: Methyltransferase inhibition panel: SETD2; details: control compound; substrate Nucleosomes 0.05 mg/mL
Experimental: as §1

[7] = biological target: T3, NRMT1 (Homo sapiens, UniProt Q9BV86); assay: Methyltransferase inhibition panel: NRMT1; details: control compound; substrate RCC1 5 μM
T3 sequence (Q9BV86 1-223): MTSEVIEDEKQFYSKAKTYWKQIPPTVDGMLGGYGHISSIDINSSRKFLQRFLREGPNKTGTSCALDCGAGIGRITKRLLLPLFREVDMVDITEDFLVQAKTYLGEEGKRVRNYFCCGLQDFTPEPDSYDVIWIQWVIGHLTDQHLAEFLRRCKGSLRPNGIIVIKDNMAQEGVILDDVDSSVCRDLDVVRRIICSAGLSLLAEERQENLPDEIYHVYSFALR
Experimental: as §1

[8] = biological target: METTL21A (Homo sapiens, UniProt Q8WXB1); assay: Methyltransferase inhibition panel: METTL21A; details: control compound; substrate HSPA8-[CTD] 2.5 μM
Experimental: as §1

[9] = biological target: DNMT3a (Homo sapiens, UniProt Q9Y6K1); assay: Methyltransferase inhibition panel: DNMT3a; details: read-out: Control IC50*
Experimental: as §1

[10] = biological target: T4, SMYD3 (Homo sapiens, UniProt Q9H7B4); assay: Methyltransferase inhibition panel: SMYD3; details: control compound; substrate MEKK2 0.5 μM
T4 sequence (Q9H7B4 1-428): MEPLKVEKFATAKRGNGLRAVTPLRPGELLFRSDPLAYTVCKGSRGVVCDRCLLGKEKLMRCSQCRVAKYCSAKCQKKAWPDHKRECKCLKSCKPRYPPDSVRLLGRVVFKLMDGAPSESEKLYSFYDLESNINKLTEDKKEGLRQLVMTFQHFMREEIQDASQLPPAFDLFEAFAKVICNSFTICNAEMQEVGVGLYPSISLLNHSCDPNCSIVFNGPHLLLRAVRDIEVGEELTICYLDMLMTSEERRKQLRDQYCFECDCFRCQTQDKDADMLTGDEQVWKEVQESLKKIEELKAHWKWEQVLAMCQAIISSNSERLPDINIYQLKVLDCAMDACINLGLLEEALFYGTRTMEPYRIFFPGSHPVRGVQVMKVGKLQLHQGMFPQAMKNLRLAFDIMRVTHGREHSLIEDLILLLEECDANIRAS
Experimental: as §1

[11] = biological target: SUV420H1TV2 (Homo sapiens, UniProt Q4FZB7); assay: Methyltransferase inhibition panel: SUV420H1TV2; details: control compound; substrate Nucleosomes 0.05 mg/mL
Experimental: as §1

[12] = biological target: DNMT3b (Homo sapiens, UniProt Q9UBC3); assay: Methyltransferase inhibition panel: DNMT3b; details: read-out: Control IC50*
Experimental: as §1

[13] = biological target: SET1b Complex (Homo sapiens, UniProt Q9UPS6); assay: Methyltransferase inhibition panel: SET1b Complex; details: control compound; substrate Core Histone 0.05 mg/mL
Experimental: as §1

[14] = biological target: PRMT6 (Homo sapiens, UniProt Q96LA8); assay: Methyltransferase inhibition panel: PRMT6; details: control compound; substrate GST-GAR 5 μM
Experimental: as §1

[15] = biological target: T5, GLP (Homo sapiens, UniProt Q9H9B1); assay: Methyltransferase inhibition panel: GLP; details: read-out: Control IC50*
T5 sequence (Q9H9B1 1-1298): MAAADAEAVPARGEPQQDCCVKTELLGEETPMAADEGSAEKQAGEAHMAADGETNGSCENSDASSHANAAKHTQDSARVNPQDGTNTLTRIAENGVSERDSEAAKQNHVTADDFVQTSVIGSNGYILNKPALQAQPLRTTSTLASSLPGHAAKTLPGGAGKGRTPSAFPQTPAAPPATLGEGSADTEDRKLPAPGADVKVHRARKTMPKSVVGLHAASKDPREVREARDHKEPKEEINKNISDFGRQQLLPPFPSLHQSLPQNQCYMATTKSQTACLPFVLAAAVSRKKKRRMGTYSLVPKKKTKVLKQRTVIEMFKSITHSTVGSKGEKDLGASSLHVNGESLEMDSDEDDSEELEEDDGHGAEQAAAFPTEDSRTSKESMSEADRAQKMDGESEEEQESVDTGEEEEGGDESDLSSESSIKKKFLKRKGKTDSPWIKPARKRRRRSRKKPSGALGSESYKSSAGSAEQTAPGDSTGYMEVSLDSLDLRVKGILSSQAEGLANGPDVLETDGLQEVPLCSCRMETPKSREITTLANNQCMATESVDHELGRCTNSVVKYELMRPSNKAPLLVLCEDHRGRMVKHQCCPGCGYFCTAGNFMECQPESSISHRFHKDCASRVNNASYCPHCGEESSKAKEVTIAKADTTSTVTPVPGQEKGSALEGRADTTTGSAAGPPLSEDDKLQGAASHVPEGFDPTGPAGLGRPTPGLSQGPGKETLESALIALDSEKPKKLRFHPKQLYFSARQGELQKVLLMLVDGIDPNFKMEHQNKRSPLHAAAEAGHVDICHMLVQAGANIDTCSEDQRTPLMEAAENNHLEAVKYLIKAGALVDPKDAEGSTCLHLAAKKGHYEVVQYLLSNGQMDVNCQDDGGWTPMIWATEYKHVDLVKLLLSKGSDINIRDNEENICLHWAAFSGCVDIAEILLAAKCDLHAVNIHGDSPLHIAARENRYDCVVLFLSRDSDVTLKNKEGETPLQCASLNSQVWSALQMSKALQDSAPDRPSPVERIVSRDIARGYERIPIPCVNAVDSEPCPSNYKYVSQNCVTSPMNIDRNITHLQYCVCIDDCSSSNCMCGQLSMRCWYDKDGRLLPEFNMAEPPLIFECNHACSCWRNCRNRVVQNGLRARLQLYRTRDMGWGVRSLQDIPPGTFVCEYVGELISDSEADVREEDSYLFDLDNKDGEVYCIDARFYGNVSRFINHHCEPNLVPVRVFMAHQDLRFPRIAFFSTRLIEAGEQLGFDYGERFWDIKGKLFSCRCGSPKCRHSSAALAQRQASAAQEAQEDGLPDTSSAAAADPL
Experimental: as §1

[16] = biological target: MLL4 Complex (Homo sapiens, UniProt Q9UMN6); assay: Methyltransferase inhibition panel: MLL4 Complex; details: control compound; substrate Nucleosomes 0.05 mg/mL
Experimental: as §1

[17] = biological target: SETDB1 (Homo sapiens, UniProt Q15047); assay: Methyltransferase inhibition panel: SETDB1; details: control compound; substrate Histone H3 5 μM
Experimental: as §1

[18] = biological target: MLL3 Complex (Homo sapiens, UniProt Q8NEZ4); assay: Methyltransferase inhibition panel: MLL3 Complex; details: control compound; substrate Nucleosomes 0.05 mg/mL
Experimental: as §1

[19] = biological target: MLL2 Complex (Homo sapiens, UniProt O14686); assay: Methyltransferase inhibition panel: MLL2 Complex; details: control compound; substrate Nucleosomes 0.05 mg/mL
Experimental: as §1

[20] = biological target: NSD1 (Homo sapiens, UniProt Q96L73); assay: Methyltransferase inhibition panel: NSD1; details: control compound; substrate Nucleosomes 0.05 mg/mL
Experimental: as §1

[21] = biological target: T6, SET7/9 (Homo sapiens, UniProt Q8WTS6); assay: Methyltransferase inhibition panel: SET7/9; details: control compound; substrate Core Histone 0.05 mg/mL
T6 sequence (Q8WTS6 1-366): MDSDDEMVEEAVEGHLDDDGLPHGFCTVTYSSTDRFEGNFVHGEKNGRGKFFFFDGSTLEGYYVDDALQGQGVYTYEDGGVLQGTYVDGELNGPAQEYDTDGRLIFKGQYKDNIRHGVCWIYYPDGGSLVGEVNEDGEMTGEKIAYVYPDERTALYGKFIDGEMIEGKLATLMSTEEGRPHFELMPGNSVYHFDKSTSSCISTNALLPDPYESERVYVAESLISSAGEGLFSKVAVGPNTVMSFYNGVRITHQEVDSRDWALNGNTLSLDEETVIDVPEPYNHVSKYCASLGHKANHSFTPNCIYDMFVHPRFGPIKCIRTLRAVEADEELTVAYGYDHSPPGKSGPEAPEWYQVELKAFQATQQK
Experimental: as §1

[22] = biological target: PRMT3 (Homo sapiens, UniProt O60678); assay: Methyltransferase inhibition panel: PRMT3; details: control compound; substrate Histone H4 5 μM
Experimental: as §1

[23] = biological target: SUV39H2 (Homo sapiens, UniProt Q9H5I1); assay: Methyltransferase inhibition panel: SUV39H2; details: control compound; substrate Histone H3 5 μM
Experimental: as §1

Chain of SUV39H2 (Q9H5I1 whole entry): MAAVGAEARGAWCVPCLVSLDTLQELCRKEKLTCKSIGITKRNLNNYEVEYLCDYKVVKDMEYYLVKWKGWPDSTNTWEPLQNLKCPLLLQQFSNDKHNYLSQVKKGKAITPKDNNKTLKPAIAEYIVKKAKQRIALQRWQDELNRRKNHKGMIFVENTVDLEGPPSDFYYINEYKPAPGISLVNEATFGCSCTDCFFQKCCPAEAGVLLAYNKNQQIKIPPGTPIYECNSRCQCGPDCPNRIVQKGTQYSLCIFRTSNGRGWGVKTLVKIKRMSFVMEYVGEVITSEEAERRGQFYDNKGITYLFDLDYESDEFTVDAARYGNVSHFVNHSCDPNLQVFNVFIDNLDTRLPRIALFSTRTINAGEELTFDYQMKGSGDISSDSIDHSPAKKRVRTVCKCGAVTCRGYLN
Chain of PRMT6 (Q96LA8 whole entry): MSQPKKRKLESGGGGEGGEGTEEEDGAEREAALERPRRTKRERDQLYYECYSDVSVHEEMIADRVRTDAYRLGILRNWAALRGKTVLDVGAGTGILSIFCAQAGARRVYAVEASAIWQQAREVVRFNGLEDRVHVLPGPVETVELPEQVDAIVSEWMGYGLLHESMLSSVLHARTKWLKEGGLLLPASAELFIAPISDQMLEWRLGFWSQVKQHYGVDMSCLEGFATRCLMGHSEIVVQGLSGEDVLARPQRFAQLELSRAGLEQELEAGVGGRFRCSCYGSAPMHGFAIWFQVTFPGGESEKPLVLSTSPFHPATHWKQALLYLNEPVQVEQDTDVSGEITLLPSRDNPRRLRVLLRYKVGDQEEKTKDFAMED
Chain of SETD2 (Q9BYW2 whole entry): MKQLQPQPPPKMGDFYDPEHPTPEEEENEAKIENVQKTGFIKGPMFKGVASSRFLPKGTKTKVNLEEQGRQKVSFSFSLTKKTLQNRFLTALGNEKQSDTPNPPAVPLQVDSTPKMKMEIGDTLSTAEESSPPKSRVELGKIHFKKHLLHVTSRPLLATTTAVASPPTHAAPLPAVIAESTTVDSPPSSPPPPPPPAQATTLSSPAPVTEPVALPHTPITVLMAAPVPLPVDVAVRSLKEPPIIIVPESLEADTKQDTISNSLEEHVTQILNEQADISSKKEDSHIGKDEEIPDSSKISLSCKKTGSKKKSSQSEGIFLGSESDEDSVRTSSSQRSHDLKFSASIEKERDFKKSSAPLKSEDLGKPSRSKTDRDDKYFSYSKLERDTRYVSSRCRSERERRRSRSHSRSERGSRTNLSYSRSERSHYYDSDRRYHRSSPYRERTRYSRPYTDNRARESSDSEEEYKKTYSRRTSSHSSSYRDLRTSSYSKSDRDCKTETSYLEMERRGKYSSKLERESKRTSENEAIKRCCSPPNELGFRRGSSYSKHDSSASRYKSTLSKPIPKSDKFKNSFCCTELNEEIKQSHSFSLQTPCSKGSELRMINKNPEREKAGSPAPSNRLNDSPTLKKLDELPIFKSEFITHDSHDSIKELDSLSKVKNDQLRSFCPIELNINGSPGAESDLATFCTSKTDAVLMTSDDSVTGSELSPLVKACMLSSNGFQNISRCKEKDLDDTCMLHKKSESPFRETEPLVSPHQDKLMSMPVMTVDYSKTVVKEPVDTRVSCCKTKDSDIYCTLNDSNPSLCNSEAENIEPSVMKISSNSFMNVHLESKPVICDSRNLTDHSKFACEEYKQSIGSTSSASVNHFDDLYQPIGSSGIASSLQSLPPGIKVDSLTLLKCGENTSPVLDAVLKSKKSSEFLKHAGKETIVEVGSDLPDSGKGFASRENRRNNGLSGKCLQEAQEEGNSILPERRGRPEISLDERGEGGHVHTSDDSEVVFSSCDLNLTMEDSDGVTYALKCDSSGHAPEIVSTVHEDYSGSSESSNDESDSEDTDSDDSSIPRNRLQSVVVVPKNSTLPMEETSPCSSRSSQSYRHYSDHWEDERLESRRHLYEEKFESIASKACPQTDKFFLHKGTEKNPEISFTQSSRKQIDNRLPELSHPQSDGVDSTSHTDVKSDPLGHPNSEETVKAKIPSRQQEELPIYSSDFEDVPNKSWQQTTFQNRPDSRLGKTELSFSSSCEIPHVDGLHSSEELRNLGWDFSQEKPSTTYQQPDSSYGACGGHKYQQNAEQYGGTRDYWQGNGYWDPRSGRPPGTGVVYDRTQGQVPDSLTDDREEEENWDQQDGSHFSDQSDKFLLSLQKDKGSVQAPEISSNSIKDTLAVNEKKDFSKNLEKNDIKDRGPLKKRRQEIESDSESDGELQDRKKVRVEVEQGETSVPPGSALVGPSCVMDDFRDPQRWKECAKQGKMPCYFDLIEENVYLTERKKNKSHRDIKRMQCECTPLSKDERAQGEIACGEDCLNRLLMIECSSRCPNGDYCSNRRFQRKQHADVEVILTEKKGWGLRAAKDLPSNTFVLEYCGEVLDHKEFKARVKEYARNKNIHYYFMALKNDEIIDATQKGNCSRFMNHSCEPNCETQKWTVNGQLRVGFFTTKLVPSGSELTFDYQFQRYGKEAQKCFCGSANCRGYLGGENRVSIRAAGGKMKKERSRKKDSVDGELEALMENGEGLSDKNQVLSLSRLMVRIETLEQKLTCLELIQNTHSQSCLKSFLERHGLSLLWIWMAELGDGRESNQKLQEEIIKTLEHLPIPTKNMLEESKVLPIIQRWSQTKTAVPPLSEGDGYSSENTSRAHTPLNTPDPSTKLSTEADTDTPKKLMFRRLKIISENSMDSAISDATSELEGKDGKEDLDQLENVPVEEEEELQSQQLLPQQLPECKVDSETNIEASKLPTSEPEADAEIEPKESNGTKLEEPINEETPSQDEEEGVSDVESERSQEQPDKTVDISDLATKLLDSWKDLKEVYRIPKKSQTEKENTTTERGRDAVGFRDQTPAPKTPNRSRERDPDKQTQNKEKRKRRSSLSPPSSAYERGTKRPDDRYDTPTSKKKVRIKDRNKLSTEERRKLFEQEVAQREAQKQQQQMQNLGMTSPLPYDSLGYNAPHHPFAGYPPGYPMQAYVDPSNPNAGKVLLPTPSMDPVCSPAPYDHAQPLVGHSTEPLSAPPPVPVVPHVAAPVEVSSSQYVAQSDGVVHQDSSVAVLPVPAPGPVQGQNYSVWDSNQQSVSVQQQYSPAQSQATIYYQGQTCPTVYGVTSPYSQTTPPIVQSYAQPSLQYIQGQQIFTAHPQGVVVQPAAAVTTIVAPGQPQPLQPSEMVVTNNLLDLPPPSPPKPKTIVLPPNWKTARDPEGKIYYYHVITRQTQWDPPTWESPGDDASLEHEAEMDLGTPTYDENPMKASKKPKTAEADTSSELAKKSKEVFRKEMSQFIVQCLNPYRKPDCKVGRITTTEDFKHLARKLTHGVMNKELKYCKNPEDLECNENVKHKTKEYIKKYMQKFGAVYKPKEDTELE
Chain of PRMT3 (O60678 whole entry): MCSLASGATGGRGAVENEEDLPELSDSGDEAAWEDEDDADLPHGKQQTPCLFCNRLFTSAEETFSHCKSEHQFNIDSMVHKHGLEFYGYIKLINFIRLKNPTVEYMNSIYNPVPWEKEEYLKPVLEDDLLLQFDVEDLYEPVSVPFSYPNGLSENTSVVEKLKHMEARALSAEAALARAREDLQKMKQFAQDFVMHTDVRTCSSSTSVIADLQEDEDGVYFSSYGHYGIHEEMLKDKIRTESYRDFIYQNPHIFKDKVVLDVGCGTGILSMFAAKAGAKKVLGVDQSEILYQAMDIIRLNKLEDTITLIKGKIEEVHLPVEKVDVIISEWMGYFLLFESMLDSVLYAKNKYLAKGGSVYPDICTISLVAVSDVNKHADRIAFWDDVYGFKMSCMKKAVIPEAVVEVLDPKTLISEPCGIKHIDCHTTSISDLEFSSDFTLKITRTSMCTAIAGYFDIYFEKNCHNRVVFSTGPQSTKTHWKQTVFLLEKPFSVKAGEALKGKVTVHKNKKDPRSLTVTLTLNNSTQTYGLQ
Chain of DNMT3a (Q9Y6K1 whole entry, looked up): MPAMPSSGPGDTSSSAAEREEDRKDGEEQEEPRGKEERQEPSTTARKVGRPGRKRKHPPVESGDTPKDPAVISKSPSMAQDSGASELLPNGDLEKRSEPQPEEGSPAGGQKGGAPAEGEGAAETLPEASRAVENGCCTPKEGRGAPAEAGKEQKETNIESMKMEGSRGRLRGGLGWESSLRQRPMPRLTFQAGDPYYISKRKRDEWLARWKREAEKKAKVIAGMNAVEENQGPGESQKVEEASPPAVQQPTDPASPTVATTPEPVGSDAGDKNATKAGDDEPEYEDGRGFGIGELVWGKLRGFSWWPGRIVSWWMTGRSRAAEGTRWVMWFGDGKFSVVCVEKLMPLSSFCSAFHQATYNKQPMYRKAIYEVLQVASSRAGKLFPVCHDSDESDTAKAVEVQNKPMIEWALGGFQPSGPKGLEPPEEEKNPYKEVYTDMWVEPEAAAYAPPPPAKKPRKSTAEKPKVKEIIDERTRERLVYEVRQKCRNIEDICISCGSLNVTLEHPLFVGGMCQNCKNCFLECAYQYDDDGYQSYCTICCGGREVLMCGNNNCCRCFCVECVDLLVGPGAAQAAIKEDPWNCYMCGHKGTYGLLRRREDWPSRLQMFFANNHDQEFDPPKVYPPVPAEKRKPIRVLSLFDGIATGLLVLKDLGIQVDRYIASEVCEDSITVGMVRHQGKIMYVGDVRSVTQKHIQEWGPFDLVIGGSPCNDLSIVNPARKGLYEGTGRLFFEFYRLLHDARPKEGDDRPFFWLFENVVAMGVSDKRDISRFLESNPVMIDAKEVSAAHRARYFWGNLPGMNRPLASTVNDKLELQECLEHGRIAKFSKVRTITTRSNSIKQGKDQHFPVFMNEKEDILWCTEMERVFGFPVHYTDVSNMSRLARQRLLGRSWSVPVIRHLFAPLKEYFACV
Chain of METTL21A (Q8WXB1 whole entry): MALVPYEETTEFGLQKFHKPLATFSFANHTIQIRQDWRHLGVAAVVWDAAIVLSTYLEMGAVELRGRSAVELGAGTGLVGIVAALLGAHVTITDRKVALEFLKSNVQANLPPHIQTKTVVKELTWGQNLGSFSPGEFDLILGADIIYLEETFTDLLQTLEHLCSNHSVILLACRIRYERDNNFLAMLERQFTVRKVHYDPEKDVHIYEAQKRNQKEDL

CN1C(=O)[C@@]23C[C@]4([C@]56C[C@@]78SS[C@@](CO)(C(=O)N7[C@H]5Nc5ccccc56)N(C)C8=O)c5ccccc5N[C@@H]4N2C(=O)[C@]1(CO)SS3 [Chaetocin, reference compound]
IC50 [1]: 30.8 nM | IC50 [2]: 85.2 nM

Cc1ccc(NC2=CC(=O)c3sc(C)nc3C2=O)cc1 [Ryuvidine, reference compound]
IC50 [3]: 109 nM

Nc1ncnc2c1ncn2[C@@H]1O[C@H](CSCC[C@H](N)C(=O)O)[C@@H](O)[C@H]1O [SAH, reference compound]
IC50 [4]: 19.3 nM | IC50 [5]: 205 nM | IC50 [6]: 3060 nM | IC50 [7]: 310 nM | IC50 [8]: 64600 nM | IC50 [9]: 154 nM | IC50 [10]: 14200 nM | IC50 [11]: 117000 nM | IC50 [12]: 37.9 nM | IC50 [13]: 8590 nM | IC50 [14]: 204 nM | IC50 [15]: 553 nM | IC50 [16]: 816 nM | IC50 [17]: 1040 nM | IC50 [18]: 18900 nM | IC50 [19]: 21200 nM | IC50 [20]: 7510 nM | IC50 [21]: 82900 nM | IC50 [22]: 870 nM | IC50 [23]: 44300 nM
